Tests used:
Experiment in all cases: relative viability (nuclei count vs DMSO), 5 days (fraction); higher = more cells survive
Dabrafenib + Trametinib = compound: CC(C)(C)c1nc(-c2cccc(NS(=O)(=O)c3c(F)cccc3F)c2F)c(-c2ccnc(N)n2)s1 [Dabrafenib] + CC(=O)Nc1cccc(-n2c(=O)n(C3CC3)c(=O)c3c(Nc4ccc(I)cc4F)n(C)c(=O)c(C)c32)c1 [Trametinib] (partner 0.02 µM)
Summary of the method: (§1)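 For relative viability, nuclei counts in treated wells were divided by those in vehicle wells. Lung cancer cell lines had been pin-tool dosed in 1536-well plates the day after seeding and cultured for 5 days, then fixed and stained in one step (final 0.05% Triton X-100, 1% formaldehyde, 1 ug/ml Hoechst) and imaged at 4×. Doses were one drug alone or a fixed anchor-drug dose plus five library-drug doses (not always all listed) in √10 steps, and values are duplicate-plate medians.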

Dabrafenib + Palbociclib = compound: CC(C)(C)c1nc(-c2cccc(NS(=O)(=O)c3c(F)cccc3F)c2F)c(-c2ccnc(N)n2)s1 [Dabrafenib] + CC(=O)c1c(C)c2cnc(Nc3ccc(N4CCNCC4)cn3)nc2n(C2CCCC2)c1=O [Palbociclib] (partner 0.5 µM)
Summary of the method: as §1

Dabrafenib + Navitoclax = compound: CC(C)(C)c1nc(-c2cccc(NS(=O)(=O)c3c(F)cccc3F)c2F)c(-c2ccnc(N)n2)s1 [Dabrafenib] + CC1(C)CCC(c2ccc(Cl)cc2)=C(CN2CCN(c3ccc(C(=O)NS(=O)(=O)c4ccc(N[C@H](CCN5CCOCC5)CSc5ccccc5)c(S(=O)(=O)C(F)(F)F)c4)cc3)CC2)C1 [Navitoclax] (partner 0.5 µM)
Summary of the method: as §1

Dabrafenib + Linsitinib = compound: CC(C)(C)c1nc(-c2cccc(NS(=O)(=O)c3c(F)cccc3F)c2F)c(-c2ccnc(N)n2)s1 [Dabrafenib] + C[C@]1(O)C[C@@H](c2nc(-c3ccc4ccc(-c5ccccc5)nc4c3)c3c(N)nccn32)C1 [Linsitinib] (partner 1 µM)
Summary of the method: as §1

Cell Line	relative viability (Dabrafenib + Trametinib; first compound 0.003 µM)	relative viability (Dabrafenib + Trametinib; first compound 0.009487 µM)	relative viability (Dabrafenib + Trametinib; first compound 0.03 µM)	relative viability (Dabrafenib + Trametinib; first compound 0.09487 µM)	relative viability (Dabrafenib + Trametinib; first compound 0.3 µM)	relative viability (Dabrafenib + Palbociclib; first compound 0.003 µM)	relative viability (Dabrafenib + Palbociclib; first compound 0.009487 µM)	relative viability (Dabrafenib + Palbociclib; first compound 0.03 µM)	relative viability (Dabrafenib + Palbociclib; first compound 0.09487 µM)	relative viability (Dabrafenib + Palbociclib; first compound 0.3 µM)	relative viability (Dabrafenib + Navitoclax; first compound 0.003 µM)	relative viability (Dabrafenib + Navitoclax; first compound 0.009487 µM)	relative viability (Dabrafenib + Navitoclax; first compound 0.03 µM)	relative viability (Dabrafenib + Navitoclax; first compound 0.09487 µM)	relative viability (Dabrafenib + Navitoclax; first compound 0.3 µM)	relative viability (Dabrafenib + Linsitinib; first compound 0.003 µM)	relative viability (Dabrafenib + Linsitinib; first compound 0.009487 µM)	relative viability (Dabrafenib + Linsitinib; first compound 0.03 µM)	relative viability (Dabrafenib + Linsitinib; first compound 0.09487 µM)	relative viability (Dabrafenib + Linsitinib; first compound 0.3 µM)
LXF-289	0.677	0.653	0.711	0.672	0.733	0.59	0.594	0.673	0.62	0.616	0.95	0.931	1.04	0.934	0.998	0.992	0.976	1.04	0.954	1.08
NCI-H23	–	0.425	0.364	0.34	0.508	–	0.575	0.465	0.455	0.634	–	0.855	0.755	0.795	0.957	–	0.67	0.553	0.645	0.547
NCI-H322M	–	0.492	–	0.53	0.532	–	0.545	–	0.526	0.477	–	1.38	–	1.12	1.17	–	1.02	–	0.874	0.895
NCI-H441	–	0.53	0.54	0.681	0.829	–	0.268	0.239	0.2	0.248	–	0.547	0.461	0.543	0.465	–	0.48	0.54	0.32	0.383
NCI-H460	0.144	0.171	0.115	0.317	0.341	0.229	0.1	0.148	0.226	0.111	1.17	1.14	1.26	0.998	1.06	0.84	0.952	0.68	0.757	0.826
NCI-H520	0.665	0.653	0.541	0.627	0.628	0.216	0.228	0.196	0.241	0.217	1.3	1.11	0.985	1.07	0.936	1.01	0.93	0.741	0.853	1.05
NCI-H647	0.42	0.394	0.306	0.579	0.553	0.328	0.377	0.305	0.395	0.349	–	1.07	–	1.08	1.11	–	1.04	1.21	1.17	1.01
NCI-H727	0.355	0.353	–	0.417	0.354	0.598	0.64	–	0.719	0.675	–	0.608	0.543	0.545	0.825	–	0.312	0.29	0.367	0.465
NCI-H838	0.51	0.614	0.428	0.429	0.506	0.207	0.238	0.209	0.214	0.236	1.22	1.29	1.13	1.11	1.28	0.994	1.04	0.95	0.97	1.08
NCI-H1355	–	0.509	0.456	0.471	0.535	–	0.458	0.373	0.409	0.47	–	1.01	0.894	–	1.07	–	0.858	0.682	–	0.823
NCI-H1395	–	1.18	0.988	0.889	0.984	–	0.655	0.623	0.642	0.623	–	1.18	1.09	1.01	0.902	–	1.07	1.05	1.07	0.854
NCI-H1437	0.522	0.502	0.688	0.579	0.73	0.307	0.35	0.363	0.384	0.413	1.14	1.02	1.14	1.07	1.1	1.03	0.989	1.07	0.974	1.07
NCI-H1651	0.85	0.843	0.823	0.861	0.814	0.499	0.494	0.51	0.524	0.505	1.15	1.03	0.997	1.01	1.03	0.962	1.01	0.833	0.971	0.989
NCI-H1666	0.818	0.782	0.837	0.832	0.885	0.643	0.671	0.675	0.565	0.686	0.929	–	1.1	0.863	0.998	0.841	–	0.846	1.03	0.931
NCI-H1734	–	0.718	0.627	0.721	0.727	–	0.352	0.287	0.344	0.347	–	0.835	0.703	0.766	0.85	–	0.924	0.602	0.701	0.893
NCI-H1755	0.779	0.733	0.758	0.75	0.749	0.429	0.425	0.435	0.411	0.415	0.949	0.938	0.75	0.964	0.997	0.917	0.984	0.887	0.975	0.99
NCI-H1792	–	0.484	0.405	0.439	0.474	–	0.718	0.66	0.63	0.66	–	0.61	0.608	0.568	0.557	–	0.599	0.485	0.528	0.394
NCI-H1793	–	0.416	–	0.451	0.412	–	0.411	–	0.289	0.291	0.463	0.599	0.306	0.445	0.669	0.832	1.53	0.702	0.781	0.914

Source: the supplement of paper PMC10307832
